Data reported in US11617730B2, “Pharmaceutical formulation for administering paracetamol by buccal/gingival route” (Unither Pharmaceuticals, priority 2017, dated 2023).

What was measured:
[1] = DOSY 1H-NMR measurement of diffusion coefficients and hydrodynamic radius (Stokes-Einstein); type: physicochemical; conditions: in ethanol; reference samples, 25° C.
Source text: For the purposes of the present invention, “hydrodynamic radius”, or RH, means the radius of a solute in solution, said solute being assumed to be spherical, as defined by the following Stokes-Einstein relation [Edward, J. T. (1970) J. Chem. Educ. 47, 261; Einstein, A. (1905) Annalen Der Physik 17, 549-560; Einstein, A. (1906) Annalen Der Physik 19, 371-381]:
[formula] • D is the diffusion coefficient of the solute in the solvent (expressed in m^2·s^−1), • kB is the Boltzmann constant, and is kB=1.3806·10^−23 J·K^−1, • T is the temperature of the medium (expressed in K), • ρ is the viscosity of the medium (expressed in Pa·s, or equivalent in kg·s^−1·m^−1), and • RH is expressed in m. […]
The sizes of molecules in solution can be estimated by liquid NMR using so-called diffusion experiments to measure the diffusion coefficients of species in solution. The experiment is performed by applying a magnetic field gradient in a given direction, the direction in which the diffusion of particles is measured. […]
This table also includes viscosity values obtained from the literature [Khattab, I. S., Bandarkar, F., Fakhree, M. A. A., and Jouyban, A. (2012) Korean J. Chem. Eng. 29, 812-817], the mole fraction of ethanol and the hydrodynamic radius calculated from the Stokes-Einstein equation. The accuracy of the value thus calculated is estimated at ±0.1 Å. […]

[2] = Stability / pre-stability studies of paracetamol in hydroalcoholic solution; type: physicochemical

CC(=O)Nc1ccc(O)cc1 [paracetamol]
RH of paracetamol [1]: 4.2 Å | Coloration in pre-stability studies ([2]; 6 months at 40° C., concentration greater than 115 mg/mL): appearance of pink coloration | Recrystallization in stability studies ([2]; concentration too high, typically above 125 mg/mL): recrystallizes over time
